According to ChEMBL document CHEMBL1141467, “Multi-target-directed ligands to combat neurodegenerative diseases” (J Med Chem, 2008):
Values belong to the molecule of their own block, whether it stands above or below them.

How the values were obtained:
Acetylcholinesterase [1] = target: T1, Acetylcholinesterase (Homo sapiens, UniProt P22303)
Description: Inhibition of human AchE-induced amyloid beta aggregation

[2] = Inhibition of amyloid beta aggregation at 100 uM; design: scale not given: the % may be the effect or the level left
Acetylcholinesterase [3] = target: T1, Acetylcholinesterase; remark: listed apart in the source
[4] = target: T2, Muscarinic acetylcholine receptor M2 (Homo sapiens) (UniProt P08172); assay: Antagonist activity at muscarinic M2 receptor; format: functional
T2 sequence (whole entry): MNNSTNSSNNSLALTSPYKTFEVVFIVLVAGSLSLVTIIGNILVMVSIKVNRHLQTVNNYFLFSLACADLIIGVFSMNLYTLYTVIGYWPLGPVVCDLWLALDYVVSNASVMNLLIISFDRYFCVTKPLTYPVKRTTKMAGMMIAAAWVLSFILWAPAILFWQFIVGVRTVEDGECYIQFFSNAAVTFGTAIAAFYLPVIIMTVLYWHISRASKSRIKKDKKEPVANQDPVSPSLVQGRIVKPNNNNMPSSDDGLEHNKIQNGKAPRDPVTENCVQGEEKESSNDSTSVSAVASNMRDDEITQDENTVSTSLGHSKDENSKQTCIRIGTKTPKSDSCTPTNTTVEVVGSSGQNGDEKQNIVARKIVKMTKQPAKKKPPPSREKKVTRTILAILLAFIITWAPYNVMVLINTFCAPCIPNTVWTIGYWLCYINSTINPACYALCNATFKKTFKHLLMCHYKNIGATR

[5] = target: T3, Amine oxidase [flavin-containing] A (Homo sapiens, UniProt P21397)
T3 sequence (P21397 whole entry): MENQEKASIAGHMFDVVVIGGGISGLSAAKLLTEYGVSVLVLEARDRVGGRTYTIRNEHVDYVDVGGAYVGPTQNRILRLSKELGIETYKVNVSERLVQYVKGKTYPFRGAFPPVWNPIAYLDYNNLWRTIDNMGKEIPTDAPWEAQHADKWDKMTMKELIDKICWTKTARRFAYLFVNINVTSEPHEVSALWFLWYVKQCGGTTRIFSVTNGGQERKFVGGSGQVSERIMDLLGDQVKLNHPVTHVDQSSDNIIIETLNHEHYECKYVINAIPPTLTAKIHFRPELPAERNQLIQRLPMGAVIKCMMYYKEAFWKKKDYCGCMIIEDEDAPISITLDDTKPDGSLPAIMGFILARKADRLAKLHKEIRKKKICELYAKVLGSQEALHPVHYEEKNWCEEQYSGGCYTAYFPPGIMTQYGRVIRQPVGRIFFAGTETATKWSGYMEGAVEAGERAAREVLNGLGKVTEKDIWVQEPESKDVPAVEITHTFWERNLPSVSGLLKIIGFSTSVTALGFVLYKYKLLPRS

[6] = target: T4, Amine oxidase [flavin-containing] B (Homo sapiens, UniProt P27338)
T4 sequence (P27338 whole entry): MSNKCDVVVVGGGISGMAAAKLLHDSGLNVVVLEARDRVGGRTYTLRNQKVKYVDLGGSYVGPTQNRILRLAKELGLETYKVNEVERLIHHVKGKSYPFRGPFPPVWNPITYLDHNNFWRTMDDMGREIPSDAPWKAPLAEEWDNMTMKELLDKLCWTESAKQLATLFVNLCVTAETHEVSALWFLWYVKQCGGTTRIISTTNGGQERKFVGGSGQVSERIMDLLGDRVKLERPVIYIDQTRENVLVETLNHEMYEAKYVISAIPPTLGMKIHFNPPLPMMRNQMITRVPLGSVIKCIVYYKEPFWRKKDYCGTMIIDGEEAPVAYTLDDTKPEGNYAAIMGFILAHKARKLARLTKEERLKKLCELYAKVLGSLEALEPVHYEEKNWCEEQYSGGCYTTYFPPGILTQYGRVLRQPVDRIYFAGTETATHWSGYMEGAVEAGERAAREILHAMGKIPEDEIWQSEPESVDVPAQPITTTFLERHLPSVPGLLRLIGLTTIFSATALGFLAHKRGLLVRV

[7] = Inhibition of metal-induced amyloid beta aggregation at 50 uM
[8] = Protection against ROS induced by oxidative stress at 10 uM in neuronal cells; format: functional
[9] = target: T5, 5-hydroxytryptamine receptor 3A (Homo sapiens, UniProt P46098)
T5 sequence (P46098 whole entry): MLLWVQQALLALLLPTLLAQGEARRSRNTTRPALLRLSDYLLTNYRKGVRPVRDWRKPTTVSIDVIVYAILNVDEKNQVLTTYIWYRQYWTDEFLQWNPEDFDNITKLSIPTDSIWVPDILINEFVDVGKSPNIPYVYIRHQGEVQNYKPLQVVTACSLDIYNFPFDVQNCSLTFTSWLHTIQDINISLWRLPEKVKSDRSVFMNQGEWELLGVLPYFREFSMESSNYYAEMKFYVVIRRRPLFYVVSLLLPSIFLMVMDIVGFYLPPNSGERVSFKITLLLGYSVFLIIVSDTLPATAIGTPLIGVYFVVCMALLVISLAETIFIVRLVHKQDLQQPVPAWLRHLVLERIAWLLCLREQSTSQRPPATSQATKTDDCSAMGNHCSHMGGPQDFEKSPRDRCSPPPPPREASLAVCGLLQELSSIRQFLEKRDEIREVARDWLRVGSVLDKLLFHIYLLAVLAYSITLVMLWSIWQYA
Description: Binding affinity to 5HT3 receptor

Acetylcholinesterase [10] = target: T1, Acetylcholinesterase; assay: Inhibition of human AchE induced amyloid beta42 aggregation
Beta-secretase 1 = Beta-secretase 1 (Homo sapiens, UniProt P56817); assay: Inhibition of BACE1
Chain of Beta-secretase 1 (P56817 whole entry): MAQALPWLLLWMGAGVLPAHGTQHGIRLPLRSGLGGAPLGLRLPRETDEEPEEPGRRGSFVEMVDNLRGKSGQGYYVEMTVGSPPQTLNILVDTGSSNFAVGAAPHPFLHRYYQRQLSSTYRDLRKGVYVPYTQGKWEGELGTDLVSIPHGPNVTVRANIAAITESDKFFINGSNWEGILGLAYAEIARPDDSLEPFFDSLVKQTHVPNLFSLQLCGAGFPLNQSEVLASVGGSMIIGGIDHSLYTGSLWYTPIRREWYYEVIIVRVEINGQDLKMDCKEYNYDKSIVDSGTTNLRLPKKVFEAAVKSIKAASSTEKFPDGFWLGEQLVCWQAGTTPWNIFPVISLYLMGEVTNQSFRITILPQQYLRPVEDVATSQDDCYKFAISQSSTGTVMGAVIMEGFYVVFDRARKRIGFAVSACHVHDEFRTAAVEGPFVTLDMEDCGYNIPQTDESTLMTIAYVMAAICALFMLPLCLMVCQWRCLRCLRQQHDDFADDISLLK

[11] = target: Sodium-dependent serotonin transporter (Homo sapiens, UniProt P31645)
Chain of Sodium-dependent serotonin transporter (P31645 whole entry): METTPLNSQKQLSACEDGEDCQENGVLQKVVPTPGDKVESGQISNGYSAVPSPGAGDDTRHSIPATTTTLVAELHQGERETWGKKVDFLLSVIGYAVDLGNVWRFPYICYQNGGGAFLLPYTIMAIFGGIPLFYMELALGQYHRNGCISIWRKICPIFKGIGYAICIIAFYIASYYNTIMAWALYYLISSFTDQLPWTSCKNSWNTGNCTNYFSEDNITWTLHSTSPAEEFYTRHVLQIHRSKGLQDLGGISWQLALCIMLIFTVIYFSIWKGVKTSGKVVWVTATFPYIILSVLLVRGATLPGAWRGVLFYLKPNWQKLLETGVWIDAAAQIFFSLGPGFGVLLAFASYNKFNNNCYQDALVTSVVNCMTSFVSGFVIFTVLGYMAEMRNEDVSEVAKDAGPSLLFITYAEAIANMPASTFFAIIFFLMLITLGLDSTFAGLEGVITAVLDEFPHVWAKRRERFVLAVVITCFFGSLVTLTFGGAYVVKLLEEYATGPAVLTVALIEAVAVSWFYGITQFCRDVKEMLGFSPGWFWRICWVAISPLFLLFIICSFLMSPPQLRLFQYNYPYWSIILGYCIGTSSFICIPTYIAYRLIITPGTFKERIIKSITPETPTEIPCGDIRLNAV

[12] = Inhibition of zinc-induced amyloid beta aggregation at 25 uM
D(4) dopamine receptor = target: T6, D(4) dopamine receptor (Homo sapiens, UniProt P21917); assay: Binding affinity to human dopaminergic D4 receptor
T6 sequence (P21917 whole entry): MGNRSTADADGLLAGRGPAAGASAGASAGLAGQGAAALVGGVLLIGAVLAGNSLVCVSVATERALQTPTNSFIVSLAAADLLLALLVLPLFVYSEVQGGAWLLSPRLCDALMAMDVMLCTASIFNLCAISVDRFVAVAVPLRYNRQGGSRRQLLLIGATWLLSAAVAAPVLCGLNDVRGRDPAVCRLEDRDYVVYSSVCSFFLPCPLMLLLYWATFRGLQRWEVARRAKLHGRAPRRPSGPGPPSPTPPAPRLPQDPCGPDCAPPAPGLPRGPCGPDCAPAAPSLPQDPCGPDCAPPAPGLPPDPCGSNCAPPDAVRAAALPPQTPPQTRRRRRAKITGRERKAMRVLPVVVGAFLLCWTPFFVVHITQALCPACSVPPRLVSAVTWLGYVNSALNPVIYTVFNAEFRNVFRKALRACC

D(2) dopamine receptor = D(2) dopamine receptor (Homo sapiens, UniProt P14416); assay: Binding affinity to human dopaminergic D2 receptor
Chain of D(2) dopamine receptor (P14416 whole entry): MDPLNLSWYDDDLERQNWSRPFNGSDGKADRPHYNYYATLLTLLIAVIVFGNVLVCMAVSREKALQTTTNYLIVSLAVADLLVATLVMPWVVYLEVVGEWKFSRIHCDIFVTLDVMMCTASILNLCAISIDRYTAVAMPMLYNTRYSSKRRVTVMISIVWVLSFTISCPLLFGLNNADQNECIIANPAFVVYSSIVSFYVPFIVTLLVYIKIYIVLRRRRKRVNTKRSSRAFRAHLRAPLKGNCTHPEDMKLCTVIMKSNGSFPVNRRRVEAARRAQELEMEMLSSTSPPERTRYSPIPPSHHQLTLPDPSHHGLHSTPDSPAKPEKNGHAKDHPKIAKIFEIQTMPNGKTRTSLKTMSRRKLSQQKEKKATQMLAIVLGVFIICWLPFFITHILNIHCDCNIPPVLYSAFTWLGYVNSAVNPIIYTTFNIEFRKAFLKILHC

[13] = target: T7, 5-hydroxytryptamine receptor 1A (Homo sapiens, UniProt P08908); assay: Binding affinity to human 5HT1A receptor
T7 sequence (P08908 whole entry): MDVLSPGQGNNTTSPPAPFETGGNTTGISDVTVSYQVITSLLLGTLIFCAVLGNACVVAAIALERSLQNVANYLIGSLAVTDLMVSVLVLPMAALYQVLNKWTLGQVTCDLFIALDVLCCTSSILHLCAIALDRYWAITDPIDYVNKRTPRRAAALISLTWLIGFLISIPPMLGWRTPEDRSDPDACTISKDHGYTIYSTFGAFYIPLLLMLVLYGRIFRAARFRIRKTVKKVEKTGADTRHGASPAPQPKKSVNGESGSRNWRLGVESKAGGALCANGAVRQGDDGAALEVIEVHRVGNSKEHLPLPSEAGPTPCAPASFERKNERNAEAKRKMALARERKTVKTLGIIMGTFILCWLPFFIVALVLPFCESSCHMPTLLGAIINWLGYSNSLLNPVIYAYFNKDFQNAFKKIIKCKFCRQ

D(3) dopamine receptor = D(3) dopamine receptor (Homo sapiens, UniProt P35462); assay: Binding affinity to human dopaminergic D3 receptor
Chain of D(3) dopamine receptor (P35462 whole entry): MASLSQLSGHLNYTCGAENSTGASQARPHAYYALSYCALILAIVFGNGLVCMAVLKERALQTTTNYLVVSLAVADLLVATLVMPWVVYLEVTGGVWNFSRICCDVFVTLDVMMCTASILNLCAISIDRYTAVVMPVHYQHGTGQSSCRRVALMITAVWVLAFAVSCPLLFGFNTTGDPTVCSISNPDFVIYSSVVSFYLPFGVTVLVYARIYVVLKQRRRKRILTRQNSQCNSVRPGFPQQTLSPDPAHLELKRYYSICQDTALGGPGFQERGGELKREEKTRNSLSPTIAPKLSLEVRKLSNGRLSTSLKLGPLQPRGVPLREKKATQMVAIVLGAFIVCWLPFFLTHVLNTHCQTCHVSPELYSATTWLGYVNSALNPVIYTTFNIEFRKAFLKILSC

Homo sapiens = organism: Homo sapiens; assay: Selectivity for human Ach over human BuCh
[14] = substrate: CCN(CCCCCCNC1=CC(=O)C(NCCCCCCN(CC)Cc2ccccc2OC)=CC1=O)Cc1ccccc1OC; assay: Binding affinity to NQQ1

T1 sequence (P22303 whole entry): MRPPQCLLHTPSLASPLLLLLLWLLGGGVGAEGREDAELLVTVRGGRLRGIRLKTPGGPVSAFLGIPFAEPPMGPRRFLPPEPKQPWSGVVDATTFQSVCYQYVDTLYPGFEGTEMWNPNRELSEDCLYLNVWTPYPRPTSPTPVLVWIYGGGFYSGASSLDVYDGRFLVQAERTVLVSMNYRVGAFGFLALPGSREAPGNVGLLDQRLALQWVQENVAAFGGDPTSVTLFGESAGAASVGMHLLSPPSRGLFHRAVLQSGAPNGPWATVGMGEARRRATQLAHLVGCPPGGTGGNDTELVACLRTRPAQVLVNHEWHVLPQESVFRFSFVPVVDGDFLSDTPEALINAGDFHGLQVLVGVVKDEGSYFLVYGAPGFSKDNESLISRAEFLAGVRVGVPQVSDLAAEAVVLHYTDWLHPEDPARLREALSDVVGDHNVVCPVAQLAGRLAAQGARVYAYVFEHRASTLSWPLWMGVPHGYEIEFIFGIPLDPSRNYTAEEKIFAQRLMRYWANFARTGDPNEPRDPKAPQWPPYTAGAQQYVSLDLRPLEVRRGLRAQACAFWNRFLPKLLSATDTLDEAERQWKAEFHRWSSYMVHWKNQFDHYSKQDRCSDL

Molecule: O=C(CCc1c[nH]c2ccccc12)NCCCCCCCNc1c2c(nc3cc(Cl)ccc13)CCCC2
IC50 (Acetylcholinesterase [1]): 9000 nM | Activity [2]: 65% | IC50 (Acetylcholinesterase [3]): 0.06 nM

Molecule: CCN(CCCCCC(=O)N1CCC(C2CCN(C(=O)CCCCCN(CC)Cc3ccccc3OC)CC2)CC1)Cc1ccccc1OC
Kb [4]: 660 nM

Molecule: C#CCN[C@@H]1CCc2ccc(OC(=O)N(C)CC)cc21 [LADOSTIGIL]
IC50 [5]: 85000 nM | IC50 [6]: 120000 nM | IC50 (Acetylcholinesterase [3]): 52400 nM

Molecule: O=C(CCc1c[nH]c2ccccc12)NCCCCCCNc1c2c(nc3cc(Cl)ccc13)CCCC2
IC50 [2]: 2000 nM | IC50 (Acetylcholinesterase [3]): 0.02 nM

IC50 [7]: > 50%
Molecule: CN(CCN(C)Cc1cc(O[C@@H]2O[C@H](CO)[C@@H](O)[C@H](O)[C@H]2O)cc(C(C)(C)C)c1O)Cc1cc(O[C@H]2O[C@@H](CO)[C@H](O)[C@@H](O)[C@@H]2O)cc(C(C)(C)C)c1O

Molecule: O=C(CCCCC1CCSS1)NCCCNc1c2c(nc3cc(Cl)ccc13)CCCC2 (stereo not given) [LIPOCRINE]
IC50 (Acetylcholinesterase [1]): 45000 nM | IC50 (Acetylcholinesterase [3]): 0.25 nM | Activity [8]: 62%

Ki [9]: 5.6 nM
Molecule: Cc1c(N2CCN(C)CC2)nc2ccccc2c1C(=O)NCCCCCCCNc1c2c(nc3ccccc13)CCCC2

Molecule: Clc1cccc(Cl)c1CO/N=C/c1cc[n+](CCCc2ccccc2)cc1
Activity [2]: 60% | IC50 (Acetylcholinesterase [3]): 180 nM

Molecule: C#CCN[C@@H]1CCc2cc(Cl)c(OC(=O)N(C)CCC)cc21
IC50 [5]: 375000 nM | IC50 [6]: 32000 nM | IC50 (Acetylcholinesterase [3]): 43900 nM

Molecule: CCN(CCCCCCNC1=CC(=O)C(NCCCCCCN(CC)Cc2ccccc2OC)=CC1=O)Cc1ccccc1OC [MEMOQUIN]
IC50 (Acetylcholinesterase [10]): 5930 nM | IC50 (Beta-secretase 1): 108 nM

Molecule: CCN(C)C(=O)Oc1cccc([C@H](C)N(C)C)c1 [RIVASTIGMINE]
IC50 [11]: > 1000 nM

IC50 [12]: > 50%
Molecule: O=C(O)CN(CCN(CC(=O)O)CC(=O)Nc1ccc(-c2nc3ccccc3s2)cc1)CCN(CC(=O)O)CC(=O)Nc1ccc(-c2nc3ccccc3s2)cc1

Activity [7]: > 50%
Molecule: Cc1c(O[C@@H]2O[C@H](CO)[C@@H](O)[C@H](O)[C@H]2O)c(=O)ccn1C

IC50 [5]: 37 nM | IC50 [6]: 57 nM
Molecule: C#CCN(C)Cc1ccnc2c(O)cccc12

Molecule: COc1ccccc1CNCCCNCCCNCCC[n+]1c(-c2ccccc2)c2cc(N)ccc2c2ccc(N)cc21
IC50 (Acetylcholinesterase [3]): 952 nM

IC50 (D(4) dopamine receptor): < 6 nM | IC50 (D(2) dopamine receptor): < 6 nM | IC50 [13]: < 6 nM | IC50 [9]: < 6 nM | IC50 (D(3) dopamine receptor): < 6 nM
Molecule: Fc1ccc(-c2cncc(CNC[C@H]3CCc4ccccc4O3)c2)cc1 [SARIZOTAN]

Molecule: COc1ccccc1CN(C)CCCCCC(=O)N(C)CCCCCCCCN(C)C(=O)CCCCCN(C)Cc1ccccc1OC
Kb [4]: 410 nM

Molecule: C#CCN(C)C(C)Cc1cccc(OC(=O)N(C)CCCCCC)c1 (stereo not given)
IC50 [5]: 20000 nM | IC50 [6]: 1500 nM

IC50 [5]: 300000 nM | IC50 [6]: 64200 nM
Molecule: C#CCN1CCN(Cc2ccnc3c(O)cccc23)CC1

Molecule: c1ccc2c(NCCc3ccc(OCCCN4CCCCC4)cc3)c3c(nc2c1)CCCC3
Ki [9]: 0.33 nM | IC50 (Acetylcholinesterase [3]): 2.6 nM

Molecule: Clc1cccc(Cl)c1CO/N=C/c1cc[n+](CCC[n+]2ccc(/C=N/OCc3c(Cl)cccc3Cl)cc2)cc1
Activity [2]: 55% | IC50 (Acetylcholinesterase [3]): 6000 nM

Molecule: O=C(CCCCCCNc1c2c(nc3cc(Cl)cc(Cl)c13)CCCC2)NCCc1c[nH]c2ccccc12
Selectivity ratio (Homo sapiens): 1000

IC50 [5]: 2390 nM | IC50 [6]: 4240 nM
Molecule: C#CCNCc1ccnc2c(O)cccc12

B1: Quinone oxidoreductase (Homo sapiens), Q08257 (protein)
chain: MATGQKLMRAVRVFEFGGPEVLKLRSDIAVPIPKDHQVLIKVHACGVNPVETYIRSGTYSRKPLLPYTPGSDVAGVIEAVGDNASAFKKGDRVFTSSTISGGYAEYALAADHTVYKLPEKLDFKQGAAIGIPYFTAYRALIHSACVKAGESVLVHGASGGVGLAACQIARAYGLKILGTAGTEEGQKIVLQNGAHEVFNHREVNYIDKIKKYVGEKGIDIIIEMLANVNLSKDLSLLSHGGRVIVVGSRGTIEINPRDTMAKESSIIGVTLFSSTKEEFQQYAAALQAGMEIGWLKPVIGSQYPLEKVAEAHENIIHGSGATGKMILLL
Km [14]: 12.7 µM
